Results on 11 compounds are retold here after PMC10787407, “Regulation of polysaccharide in Wu‐tou decoction on intestinal microflora and pharmacokinetics of small molecular compounds in AIA rats” (Chinese Medicine, 2024).

Broadly, the AUC(0-inf) is total exposure, with the tail of the curve extrapolated. Higher therefore signals high exposure. Broadly, the Cmax is the maximum level reached in the sampled fluid or tissue. The term Tmax denotes the time at which the peak concentration occurs. What is called half-life is how long it takes for the measured level to halve. Read a low half-life as fast loss.

This data set can be described thus: PK study of SM components in plasma of AIA rats by UPLC-MS/MS (MG vs MPS group). The settings on record: for AUC 0-t / AUC 0-∞ / C max / T max / t 1/2 / AUC(0-inf) / Cmax / Tmax / half-life: then oral SM 39.2 g crude drug/kg, plasma, mean ± SEM; for Cmax: C max; for Tmax: T max; for Absorption under the intervention of PS: MPS vs MG group.
[1] abbreviates: MG group: AIA rats, saline 21 days.
The mark [2] stands for this setting: MPS group: AIA rats, oral PS 9.8 g crude drug/kg/day 21 days.
Where [3] appears, read: Sprague-Dawley, rat, po, 39.2 g/kg/day, AUC 0-t, MG group: AIA rats, saline 21 days.
Where [4] appears, read: Sprague-Dawley, rat, po, 39.2 g/kg/day, AUC 0-t, MPS group: AIA rats, oral PS 9.8 g crude drug/kg/day 21 days.
Where [5] appears, read: Sprague-Dawley, rat, po, 39.2 g/kg/day, MG group: AIA rats, saline 21 days.
The mark [6] stands for this setting: Sprague-Dawley, rat, po, 39.2 g/kg/day, MPS group: AIA rats, oral PS 9.8 g crude drug/kg/day 21 days.
[7] abbreviates: Sprague-Dawley, rat, po, 39.2 g/kg/day, t 1/2, MG group: AIA rats, saline 21 days.
Setting [8] is: Sprague-Dawley, rat, po, 39.2 g/kg/day, t 1/2, MPS group: AIA rats, oral PS 9.8 g crude drug/kg/day 21 days.
Where [9] appears, read: MPS group compared with the MG group, AIA rats.

Experimental: In the PK study, 12 SD rats were divided into model group (MG group) and model + polysaccharide group (MPS group). Rats in the MPS group were given PS (9.8 g crude drug/kg/day) by oral administration, while rats in the MG group received the same amount of saline. After continuous administration for 21 days, rats in both groups were given SM (39.2 g crude drug/kg/day), and two groups of rats were subjected to a PK study.
The supernatant was collected and dried with N2, redissolved with 100 μL methanol, and centrifuged again after 10 min centrifugation at 4 °C, 13000 rpm. Then the supernatant was collected for UPLC-MS /MS analysis.
The Shimadzu UPLC-MS/MS system was used for the PK study. […] The multiple reaction monitoring (MRM) mode was used both in positive and negative mode. The MS parameters were as follows: flow rate of heating gas 10 L/min, flow rate of drying gas 10 L/min, flow rate of atomizing gas 3 L/min, interfacial temperature 300 ℃, DL temperature 250 ℃.
Separation was performed using a Waters ACQUITY UPLC BEH C18 column (2.1 mm × 100 mm, 1.7 μm). The mobile phase was 0.1% formic acid water (v/v) (A) and acetonitrile (B).

On to `O=C1C[C@@H](c2ccc(O)cc2)Oc2cc(O)ccc21` [Liquiritigenin], for which, under setting [1], the “AUC 0-t” value was found to be 48.549 ± 6.497 ng·h/mL, the “AUC 0-∞” value turned out to be 49.404 ± 6.315 ng·h/mL, the C max was determined as 25.519 ± 7.560 ng/mL and the T max turned out to be 0.139 ± 0.079 h. The “t 1/2” value under setting [1] came out at 1.841 ± 0.242 h. For the same compound, under setting [2], the “AUC 0-t” value came out at 47.195 ± 4.360 ng·h/mL, the “AUC 0-∞” value worked out at 47.548 ± 4.374 ng·h/mL, the C max is recorded as 23.367 ± 4.695 ng/mL and the T max is recorded as 0.083 ± 0.001 h. Under setting [2], the “t 1/2” value is recorded as 1.448 ± 0.025 h.

Consider `CC1(C)[C@@H](O)CC[C@]2(C)[C@H]3C(=O)C=C4[C@@H]5C[C@@](C)(C(=O)O)CC[C@]5(C)CC[C@@]4(C)[C@]3(C)CC[C@@H]12` [Glycyrrhetinic acid], for which the AUC 0-t runs as follows: under setting [3], 28800 ng·h/mL; under setting [4], 30500 ng·h/mL. Besides, the AUC(0-inf) runs as follows: under setting [5], 32900 ng·h/mL; under setting [6], 34500 ng·h/mL. Moreover, the peak concentration (Cmax) is 7830 ± 283 ng/mL under setting [5] and 11600 ng/mL under setting [6]. In addition, the time to peak (Tmax) was 2 ± 0.001 h under setting [5] and 2 ± 0.001 h under setting [6]. The half-life by setting is: under setting [7], 10.7 ± 3.72 h; under setting [8], 10.8 ± 1.96 h.

For the compound `C[C@]12C[C@@H](O)[C@@H]3C[C@@]1(O[C@@H]1O[C@H](CO)[C@@H](O)[C@H](O)[C@H]1O)[C@@]3(COC(=O)c1ccccc1)C(=O)O2` [Albiflorin], under setting [1], the “AUC 0-t” value was found to be 424.990 ± 55.691 ng·h/mL, the “AUC 0-∞” value amounted to 458.506 ± 69.994 ng·h/mL, the C max turned out to be 287.831 ± 42.177 ng/mL and the T max is 0.250 ± 0.001 h. Further, the “t 1/2” value under setting [1] was 2.488 ± 0.458 h. Further, under setting [9], the “Change of AUC 0-t after oral PS” value is recorded as “increased” and the “Change of AUC 0-∞ after oral PS” value was “increased”. In addition, under setting [2], the “AUC 0-t” value came to 644.268 ± 174.084 ng·h/mL, the “AUC 0-∞” value is 698.946 ± 175.788 ng·h/mL, the C max is given as 306.851 ± 57.880 ng/mL and the T max worked out at 0.139 ± 0.072 h. Besides, the “t 1/2” value under setting [2] came out at 1.669 ± 0.080 h. Further, the “Absorption under the intervention of PS” value (AIA rats) is “increased”.

Turning to `COC[C@@]12CC[C@H](OC)[C@]34C([C@H]([C@H](OC)[C@H]13)[C@]1(O)[C@H]3[C@@H](OC(=O)c5ccccc5)[C@](O)(C[C@H]34)[C@@H](OC)[C@@H]1O)N(C)C2` [Benzoylhypaconine], under setting [1], the “AUC 0-t” value was found to be 1.018 ± 0.049 ng·h/mL, the “AUC 0-∞” value stood at 1.123 ± 0.062 ng·h/mL, the C max is recorded as 0.467 ± 0.108 ng/mL and the T max is given as 0.083 ± 0.001 h. The “t 1/2” value under setting [1] was found to be 3.938 ± 0.322 h. For the same compound, under setting [9], the “Change of AUC 0-∞ after oral PS” value is reported as “increased” and the “Change of C max after oral PS” value is “increased”. In addition, under setting [2], the “AUC 0-t” value was 1.394 ± 0.255 ng·h/mL, the “AUC 0-∞” value stood at 1.604 ± 0.229 ng·h/mL, the C max was found to be 0.861 ± 0.160 ng/mL and the T max is listed as 0.083 ± 0.001 h. The “t 1/2” value under setting [2] is reported as 4.742 ± 0.904 h. For the same compound, the “Absorption under the intervention of PS” value (AIA rats) is “increased”.

As for `CCN1C[C@]2(COC)[C@H](O)C[C@H](OC)[C@@]34[C@@H]5C[C@@]6(O)[C@H](OC(=O)c7ccccc7)[C@@H]5[C@@](O)([C@@H]([C@H](OC)[C@H]23)[C@@H]14)[C@@H](O)[C@@H]6OC` [Benzoylaconine], under setting [1], the “AUC 0-t” value was determined as 0.764 ± 0.082 ng·h/mL, the “AUC 0-∞” value was found to be 1.015 ± 0.158 ng·h/mL, the C max is recorded as 0.548 ± 0.178 ng/mL and the T max is reported as 0.125 ± 0.072 h. The “t 1/2” value under setting [1] is 7.430 ± 5.148 h. Also, under setting [2], the “AUC 0-t” value came to 1.064 ± 0.136 ng·h/mL, the “AUC 0-∞” value was found to be 1.202 ± 0.128 ng·h/mL, the C max came to 0.720 ± 0.116 ng/mL and the T max was found to be 0.083 ± 0.001 h. The “t 1/2” value under setting [2] is given as 3.875 ± 1.842 h.

As for `CCN1C[C@]2(COC)CC[C@H](O)[C@]34C1[C@H]([C@H](OC)[C@H]23)[C@@]1(O)C[C@H](OC)[C@H]2C[C@@H]4[C@@H]1[C@H]2O` [Neoline], under setting [1], the “AUC 0-t” value came out at 7.417 ± 0.718 ng·h/mL, the “AUC 0-∞” value was determined as 8.058 ± 0.838 ng·h/mL, the C max was found to be 3.221 ± 1.040 ng/mL and the T max worked out at 0.333 ± 0.118 h. Moreover, the “t 1/2” value under setting [1] worked out at 3.245 ± 0.999 h. For the same compound, under setting [2], the “AUC 0-t” value stood at 7.559 ± 0.880 ng·h/mL, the “AUC 0-∞” value came out at 7.980 ± 0.757 ng·h/mL, the C max was found to be 3.695 ± 1.005 ng/mL and the T max is 0.250 ± 0.001 h. Also, under setting [2], the “t 1/2” value is 2.486 ± 0.349 h.

As for `COC[C@]12CN(C)C3[C@@H]4[C@H](OC)[C@H]1[C@@]3([C@@H](OC)C[C@H]2O)[C@@H]1C[C@@]2(O)[C@H](OC(=O)c3ccccc3)[C@@H]1[C@]4(O)[C@@H](O)[C@@H]2OC` [Benzoylmesaconitine], under setting [1], the “AUC 0-t” value came to 21.413 ± 1.140 ng·h/mL, the “AUC 0-∞” value turned out to be 23.447 ± 1.422 ng·h/mL, the C max was found to be 14.305 ± 3.689 ng/mL and the T max is 0.139 ± 0.079 h. In addition, the “t 1/2” value under setting [1] is recorded as 3.530 ± 0.873 h. In addition, under setting [2], the “AUC 0-t” value came to 25.368 ± 7.147 ng·h/mL, the “AUC 0-∞” value was determined as 25.465 ± 7.145 ng·h/mL, the C max turned out to be 15.899 ± 4.818 ng/mL and the T max worked out at 0.083 ± 0.001 h. In addition, under setting [2], the “t 1/2” value is listed as 1.723 ± 0.296 h.

As for `CC1(C)[C@@H](O[C@H]2O[C@H](C(=O)O)[C@@H](O)[C@H](O)[C@H]2O[C@@H]2O[C@H](C(=O)O)[C@@H](O)[C@H](O)[C@H]2O)CC[C@]2(C)[C@H]3C(=O)C=C4[C@@H]5C[C@@](C)(C(=O)O)CC[C@]5(C)CC[C@@]4(C)[C@]3(C)CC[C@@H]12` [Glycyrrhizic acid], under setting [1], the “t 1/2” value is on record as 7.605 ± 1.142 h. Further, the “Change of C max after oral PS” value under setting [9] is “significantly increased”. In addition, the “Absorption under the intervention of PS” value (AIA rats) is “increased”. Also, under setting [3], the AUC 0-t turned out to be 23100 ng·h/mL. Also, under setting [4], the AUC 0-t stood at 29600 ng·h/mL. Also, under setting [5], the area under the curve AUC(0-inf) was 25900 ng·h/mL, the concentration peaked (Cmax) at 3800 ± 304 ng/mL and the Tmax stood at 0.5 ± 0.001 h. In addition, under setting [6], the total exposure AUC(0-inf) was 27400 ng·h/mL, the peak level (Cmax) was 5200 ± 706 ng/mL and the Tmax came out at 0.667 ± 0.236 h. Also, the half-life under setting [8] was 7.25 ± 0.086 h.

For the compound `COc1ccc(-c2coc3cc(O)ccc3c2=O)cc1` [Formononetin], the “AUC 0-t” value is, setting by setting: under setting [1], 15.278 ± 1.823 ng·h/mL; under setting [4], 12.3 ± 1.98 ng·h/mL. Besides, the “Change of C max after oral PS” value under setting [9] is given as “reduced”. The “Absorption under the intervention of PS” value (AIA rats) is listed as “decreased”. The AUC(0-inf) reads like this: under setting [5], 17.5 ± 1.69 ng·h/mL; under setting [6], 13.6 ± 1.93 ng·h/mL. The maximum concentration (Cmax) amounted to 7.39 ± 1.16 ng/mL under setting [5] and 4.5 ± 0.902 ng/mL under setting [6]. The time to peak (Tmax) is 0.083 ± 0.001 h under setting [5] and 0.25 ± 0.001 h under setting [6]. Further, the half-life under setting [7] was 4.27 ± 0.406 h and the half-life under setting [8] was 3.76 ± 0.557 h.

With `CCN1C[C@]2(COC)CC[C@H](OC)[C@]34C1[C@H](C[C@H]23)[C@@]1(O)C[C@H](OC)[C@H]2C[C@@H]4[C@@H]1[C@H]2O` [Talatizamine], under setting [1], the “AUC 0-t” value was determined as 21.996 ± 1.581 ng·h/mL, the “AUC 0-∞” value is 30.766 ± 4.871 ng·h/mL, the C max worked out at 3.376 ± 0.595 ng/mL and the T max was found to be 0.417 ± 0.276 h. Further, the “t 1/2” value under setting [1] is 6.242 ± 1.838 h. Moreover, under setting [2], the “AUC 0-t” value was 22.338 ± 1.786 ng·h/mL, the “AUC 0-∞” value came out at 28.106 ± 2.545 ng·h/mL, the C max stood at 3.576 ± 0.320 ng/mL and the T max was 0.292 ± 0.093 h. In addition, under setting [2], the “t 1/2” value amounted to 5.163 ± 1.483 h.

With `COc1ccc(-c2coc3cc(O[C@@H]4O[C@H](CO)[C@@H](O)[C@H](O)[C@H]4O)ccc3c2=O)cc1O` [Calycosin-7-glycoside], under setting [1], the “AUC 0-t” value came to 17.473 ± 2.858 ng·h/mL, the “AUC 0-∞” value came to 18.097 ± 2.629 ng·h/mL, the C max was determined as 17.607 ± 2.640 ng/mL and the T max came out at 0.110 ± 0.062 h. Further, the “t 1/2” value under setting [1] is 2.342 ± 0.959 h. Under setting [2], the “AUC 0-t” value amounted to 15.987 ± 2.778 ng·h/mL, the “AUC 0-∞” value stood at 16.625 ± 2.476 ng·h/mL, the C max is reported as 15.506 ± 2.308 ng/mL and the T max is 0.083 ± 0.001 h. Also, the “t 1/2” value under setting [2] was 2.113 ± 0.779 h.
